The text below walks through data of patent publication US9718809B2, “Bisarylsulfonamides useful in the treatment of inflammation and cancer” (Kancera AB, priority 2011, dated 2017).

Broadly, the IC50 is the concentration at which inhibition is half-maximal.

The structures appear in SMILES notation. Where a name gives a salt, the structure may show the parent alone. Where only a bound is given, the exact number is not on record here.

One assay relates to F-2,6-P2 in NUGC-3 cells. Description: Quantification of F-2,6-P2 (Van Schaftingen coupled enzyme assay) in NUGC-3 cells. It counts as cell-based. The conditions noted are these: Homo sapiens; NUGC-3 cells, under hypoxia (0.6-1% O2); read-out: IC50 based on quantification of F-2,6-P2. The source says: (§1) A method for quantification of F-2,6-P2 has been described by Van Schaftingen et al. (1982) Eur. J. Biochem. 129, 191-5. This sensitive assay is based on the potent activation of pyrophosphate dependent phosphofructokinase-1 (PPi-PFK) from potato tubers by F-2,6-P2. The use of a series of coupled enzymes leads to a consumption of NADH (nicotinamide adenine dinucleotide) that can be followed spectrophotometrically (an updated protocol is available in Van Schaftingen, (1984) Methods of Enzymatic Analysis (Bergmeyer, H. U., ed.), 3rd edn., vol. 6, pp. 335-341, Verlag Chemie, Weinheim). A protocol for measurements in 96-well microtiter plate format is also available (Bruni et al., (1989) Anal. Biochem. 178, 324-6).
(§2) The levels of F-2,6-P2 have been determined using the van Shaftingen assay as described in the protocol below, in six different cancer cell lines endogenously expressing varying levels of the different isoforms of PFK-2/BPase-2 (MCF-7, PANC-1, NUGC-3, SW480, SW620 and MIA PaCa-2). All reagents were purchased from commercial sources or prepared in-house.
Cell line C (NUGC-3, human gastric cancer cell line): NUGC-3 cells (JCRB0822), lot no. 04272009. Growth medium: RPMI1640, #R8758, Sigma-Aldrich; 10% FBS, Invitrogen, 10270-106 or Dulbecco's Modified Eagle's Medium, DMEM, VWR, LONZ12-604F; 10% FBS, Invitrogen, 10270-106. Cells were seeded at a concentration of ˜350 000 cells/mL in 100 μL growth medium (˜35 000 cells/well).
(§3) Starvation medium (cell lines A-F): DMEM/F12 without phenol red and glucose free, SVA, 991373; 0.25% FBS, Invitrogen, 10270-106.
(§4) Induction medium (cell lines A-F): DMEM/F12 without phenol red and glucose free, SVA, 991373; 0.25% FBS, Invitrogen, 10270-106 (same as starvation medium).
(§5) Cells were seeded in 96-well Corning Costar tissue culture plates (CLS3595, Sigma-Aldrich) using the concentrations specified above for the different cell lines A-F and incubated over night at 37° C. and 5% CO2. Row A in the plate was left empty and the cell lines added to rows B-H. Next day the growth medium was discarded and replaced with 100 μL starvation medium. The plates were incubated for 18 h at 37° C. and 5% CO2. After 18 h of starvation the cells were induced with 100 μL compound or control solutions. Compounds were either tested in two concentrations (50 μM and 10 μM) or in dose response curves starting from 50 μM. The final DMSO concentration in assay plates was 0.5%. Also a dose response curve of a reference inhibitor was included in row H on each plate. All compounds were tested in duplicate plates. Compounds (in 96 well CLS 3365, Sigma-Aldrich plates) were serial diluted in DMSO from 10 mM compound DMSO stock solutions with Janus (automated liquid handling workstation from PerkinElmer). Five μL were transferred to a Greiner deep well plate (736-0155, VWR) with 495 μL starvation medium. The final start concentration of compounds in the dilution plate was 100 μM, 1% DMSO. For compounds tested as single points, 10 mM compound solutions were diluted five fold in DMSO to 2 mM, followed by the transfer of 5 μL to separate dilution plates with 495 μL starvation medium. The final concentrations of compounds in these dilution plates were 100 or 20 μM, respectively, and final concentration of DMSO was 1%. The plates were incubated at 37° C. and 5% CO2 for 1 h, followed by the addition of 10 μL 20 mM D-glucose in starvation medium. Controls, with and without 1 mM glucose, were included in row B. The final assay volume was 210 μL per well. After 2 h of incubation at 37° C. and 5% CO2, the supernatants were discarded and the cells lysed by the addition of 25 μL 250 mM NaOH. The plates were incubated at 37° C. and 5% CO2 for 5 min followed by an addition of 75 μL MilliQ dH2O. The supernatants were further diluted with 210 μL MilliQ dH2O to a final concentration of 20 mM NaOH. 200 μL were transferred to NUNC 96-well plates (7322661, VWR) and the plates were sealed and stored at −20° C. until analysis. […]
On to `Cn1c(COC(=O)c2ccc(NS(=O)(=O)c3cc(Cl)c(Cl)s3)cc2O)cnc1[N+](=O)[O-]` [Example 202, (1-Methyl-2-nitro-1H-imidazol-5-yl)methyl 4-{[(4,5-dichlorothiophen-2-yl)sulfonyl]amino}-2-hydroxybenzoate], for which the IC50 turned out to be 5600 nM.

Still in this assay, the particulars now being: Homo sapiens; NUGC-3 cells; read-out: IC50 based on quantification of F-2,6-P2.
Turning to `COC(=O)c1ccc(NS(=O)(=O)c2cccc(-c3cc(F)ccc3F)c2)cc1O` [Example 153, Methyl 4-{[(2′,5′-difluorobiphenyl-3-yl)sulfonyl]amino}-2-hydroxybenzoate], the IC50 came out at 5100 nM. On the same count and under the same terms, then `O=C(OCCCN1CCOCC1)c1ccc(NS(=O)(=O)c2cc(-c3ccc4c(c3)OCO4)c(Cl)s2)cc1O` [Example 162, 3-Morpholin-4-ylpropyl 4-({[4-(1,3-benzodioxol-5-yl)-5-chloro-2-thienyl]sulfonyl}amino)-2-hydroxybenzoate trifluoroacetate], with 2800 nM; and `COCC(COC)OC(=O)c1ccc(NS(=O)(=O)c2cc(Cl)cc(Cl)c2)cc1O` [Example 191, 2-Methoxy-1-(methoxymethyl)ethyl 4-{[(3,5-dichlorophenyl)sulfonyl]amino}-2-hydroxybenzoate], with 1400 nM. The same measure, in the same setting: then `CC(CCN1CCOCC1)OC(=O)c1ccc(NS(=O)(=O)c2cc(Cl)c(Cl)s2)cc1O` (centres unmarked) [Example 193], with 1200 nM.

A further assay has as its system F-2,6-P2 in PANC-1 cells. Briefly: Quantification of F-2,6-P2 (Van Schaftingen coupled enzyme assay) in PANC-1 cells. Format: cell-based, human. As to conditions: Homo sapiens; PANC-1 cells; read-out: IC50 based on quantification of F-2,6-P2.
Excerpt: as §1, §2
Cell line B (PANC-1, human pancreatic carcinoma cell line): PANC-1 cells (ATCC-CRL-1469), lot. no. 58564651. Cells were seeded at a concentration of ˜250 000 cells/mL in 100 μL growth medium (˜25 000 cells/well).
Growth medium (cell lines B-F): Dulbecco's Modified Eagle's Medium, DMEM, VWR, LONZ12-604F; 10% FBS, Invitrogen, 10270-106.
as §3, §4, §5
`COC(=O)c1ccc(NS(=O)(=O)c2cccc(C(=O)OC(C)C)c2)cc1O` [Example 137, Methyl 2-hydroxy-4-[({3-[(1-methylethoxy)carbonyl]phenyl}sulfonyl)amino]benzoate]: the IC50 was found to be 11100 nM. Same read-out and setting: then `COC(=O)c1ccc(NS(=O)(=O)c2cccc(N3CCCCC3)c2)cc1O` [Example 142, Methyl 2-hydroxy-4-({[3-(piperidin-1-yl)phenyl]sulfonyl}amino)benzoate], with 1500 nM. Take `COC(=O)c1ccc(NS(=O)(=O)c2cc(-c3cccc(C(=O)N(C)C)c3)c(Cl)s2)cc1O` [Example 143, Methyl 4-[({5-chloro-4-[3-(dimethylcarbamoyl)phenyl]thiophen-2-yl}sulfonyl)amino]-2-hydroxybenzoate]: the IC50 amounted to 2400 nM. In the case of `COC(=O)c1ccc(NS(=O)(=O)c2cnc(Cl)c(-c3ccc4c(c3)CCO4)c2)cc1O` [Example 155, Methyl 4-({[6-chloro-5-(2,3-dihydro-1-benzofuran-5-yl)pyridin-3-yl]sulfonyl}amino)-2-hydroxybenzoate], the IC50 was found to be 4900 nM.

Consider `COCCOC(=O)c1ccc(NS(=O)(=O)c2cccc(-c3ccc4c(c3)CCO4)c2)cc1O` [Example 175, 2-Methoxyethyl 4-({[3-(2,3-dihydro-1-benzofuran-5-yl)phenyl]sulfonyl}amino)-2-hydroxybenzoate], for which the IC50 came to 700 nM. In the case of `O=C(OCCCN1CCOCC1)c1ccc(NS(=O)(=O)c2cc(Cl)cc(Cl)c2)cc1O` [Example 187, 3-Morpholin-4-ylpropyl 4-{[(3,5-dichlorophenyl)sulfonyl]amino}-2-hydroxybenzoate trifluoroacetate], the IC50 is 6800 nM.

`COCCOC(=O)c1ccc(NS(=O)(=O)c2c(Cl)sc(Cl)c2Br)cc1O` [Example 197, 2-Methoxyethyl 4-{[(4-bromo-2,5-dichlorothiophen-3-yl)sulfonyl]amino}-2-hydroxybenzoate]: the IC50 worked out at 3500 nM. As for `O=C(OC1CCN(Cc2ccccc2)C1)c1ccc(NS(=O)(=O)c2c(Cl)sc(Cl)c2Cl)cc1O` (centres unmarked) [Example 204, 1-Benzylpyrrolidin-3-yl 2-hydroxy-4-{[(2,4,5-trichloro-3-thienyl)sulfonyl]amino}benzoate], the IC50 is 1800 nM. Regarding `COC(=O)c1ccc(NS(=O)(=O)c2cc(Cl)c(-c3ccccc3O)s2)cc1O` [Example 206, Methyl 4-({[4-chloro-5-(2-hydroxyphenyl)thiophen-2-yl]sulfonyl}amino)-2-hydroxybenzoate], the IC50 came to 8900 nM.

For the molecule `O=C(OCCCN1CCOCC1)c1ccc(NS(=O)(=O)c2cc(-c3cc(F)ccc3O)c(Cl)s2)cc1O` [Example 213, 3-Morpholin-4-ylpropyl 4-({[5-chloro-4-(5-fluoro-2-hydroxyphenyl)-2-thienyl]sulfonyl}amino)-2-hydroxybenzoate trifluoroacetate], the IC50 is 600 nM. Take `O=C(OCCO)c1ccc(NS(=O)(=O)c2cc(-c3ccccc3)c(Cl)s2)cc1O` [Example 217, 2-Hydroxyethyl 4-{[(5-chloro-4-phenyl-2-thienyl)sulfonyl]amino}-2-hydroxybenzoate]: the IC50 is 1400 nM.

Consider `COCC(COC)OC(=O)c1ccc(NS(=O)(=O)c2cc(-c3cccc(F)c3)c(Cl)s2)cc1O` [Example 222, 2-Methoxy-1-(methoxymethyl)ethyl 4-({[5-chloro-4-(3-fluorophenyl)-2-thienyl]sulfonyl}amino)-2-hydroxybenzoate], for which the IC50 was 2000 nM. Same read-out and setting: then `O=C(OCCCNc1cccnc1)c1ccc(NS(=O)(=O)c2cccc(-c3cc(F)ccc3O)c2)cc1O` [Example 230, 3-(Pyridin-3-ylamino)propyl 4-{[(5′-fluoro-2′-hydroxybiphenyl-3-yl)sulfonyl]amino}-2-hydroxybenzoate trifluoroacetate], with 1900 nM; and `Cc1cc(NCCCOC(=O)c2ccc(NS(=O)(=O)c3cccc(-c4cc(F)ccc4O)c3)cc2O)no1` [Example 232, 3-[(5-Methylisoxazol-3-yl)amino]propyl 4-{[(5′-fluoro-2′-hydroxybiphenyl-3-yl)sulfonyl]amino}-2-hydroxybenzoate trifluoroacetate], with 800 nM.

The same assay, now with this note: at 12.5-50 μM in PANC-1 cells.
For the molecule `CC(=O)Oc1cc(NS(=O)(=O)c2cccc3ccccc23)ccc1C(=O)OCc1ccccc1` [Example 140, Benzyl 2-acetoxy-4-[(1-naphthylsulfonyl)amino]benzoate], the “inhibition (F-2,6-P2 levels)” value is given as at least 50%. Still for that read-out and setting: then `COC(=O)c1ccc(NS(=O)(=O)c2cc(Cl)c(-c3ccccc3OC)s2)cc1O` [Example 207, Methyl 4-({[4-chloro-5-(2-methoxyphenyl)thiophen-2-yl]sulfonyl}amino)-2-hydroxybenzoate], with at least 50%; and `O=C(O)C(F)(F)F.O=C(OCCOc1ccc(Cl)nc1)c1ccc(NS(=O)(=O)c2cc(Cl)c(Cl)s2)cc1O` [Example 226, 2-[(6-Chloropyridin-3-yl)oxy]ethyl 4-{[(4,5-dichloro-2-thienyl)sulfonyl]amino}-2-hydroxybenzoate trifluoroacetate], with at least 50%; and `COCc1cccc(OCCOC(=O)c2ccc(NS(=O)(=O)c3cc(Cl)c(Cl)s3)cc2O)c1` [Example 227, 2-[3-(Methoxymethyl)phenoxy]ethyl 4-{[(4,5-dichloro-2-thienyl)sulfonyl]amino}-2-hydroxybenzoate], with at least 50%.
